This series can be described thus: Solubility testing of aplidine. The class given is physicochemical. Conditions: water. From the text: The antitumour agent aplidine (dehydrodidemnin B) is a natural occurring cyclic depsipeptide isolated from the Mediterranean runicate Aplidium albicans. Aplidine has been characterised by using several chromatographic and spectrometric techniques. […] Moreover, the long-term stability of aplidine in solution is currently unknown.

As for dehydrodidemnin B [aplidine], the aqueous solubility entry is “poor aqueous solubility”.

Source of the values: patent publication US8420130B1, “Pharmaceutical formulation of a didemnin compound” (Pharma Mar S.A., priority 1998, dated 2013).
